molecular target: T1, Full length (FL) 3-Phosphoglycerate Dehydrogenase (PHGDH) (Homo sapiens, UniProt O43175); assay: Full length (FL) PHGDH Diaphorase coupled assay (500 uM NAD); format: biochemical; settings: full-length PHGDH 5 nM, 30° C. 60 minutes, resorufin fluorescence
T1 construct: Full length (FL) 3-Phosphoglycerate Dehydrogenase (PHGDH) Diaphorase coupled assay (500 uM NAD)
T1 sequence (O43175 1-533): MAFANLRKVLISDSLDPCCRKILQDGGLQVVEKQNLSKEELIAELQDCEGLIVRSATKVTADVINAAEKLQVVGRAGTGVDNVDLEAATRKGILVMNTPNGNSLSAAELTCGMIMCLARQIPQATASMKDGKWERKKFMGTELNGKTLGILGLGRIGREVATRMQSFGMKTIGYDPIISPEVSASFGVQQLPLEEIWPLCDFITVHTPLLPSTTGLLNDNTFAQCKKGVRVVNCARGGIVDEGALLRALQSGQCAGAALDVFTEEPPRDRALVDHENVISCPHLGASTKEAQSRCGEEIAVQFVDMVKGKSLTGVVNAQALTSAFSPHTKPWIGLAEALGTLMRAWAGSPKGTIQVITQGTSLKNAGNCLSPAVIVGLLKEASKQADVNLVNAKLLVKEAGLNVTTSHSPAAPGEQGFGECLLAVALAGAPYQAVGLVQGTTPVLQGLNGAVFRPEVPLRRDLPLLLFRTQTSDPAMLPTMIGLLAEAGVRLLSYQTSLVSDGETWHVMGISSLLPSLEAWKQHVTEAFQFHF
Protocol: Full length (FL) 3-Phosphoglycerate Dehydrogenase (PHGDH) Diaphorase coupled assay (500 uM NAD)
PHGDH activity was determined by detecting the NADH produced during the reaction. Diaphorase was used to catalyze the oxidation of NADH with the concomitant reduction of resazurin to the fluorescent product resorufin. Resorufin fluorescence quantitatively reflected the production of NADH by the PHGDH reaction. To drive the forward reaction, two enzymes in the serine synthesis pathway subsequent to PHGDH, Phosphoserine aminotransferase (PSAT1) and phosphoserine phosphatase (PSPH) were also added to the reaction.
Briefly, serial dilution of compounds were incubated in a volume of 20 μL in 384 well plates with the assay mixture containing 5 nM PHGDH, 500 nM PSAT1, 500 nM PSPH, 500 μM NAD^+, 80 uM 3-phosphoglycerate, 1 mM glutamate, 57 uM Resazurin and 0.2 mg/ml Diaphorase in assay buffer containing 50 mM Trisethanoloamine (TEA) pH8.0, 10 mM MgCl2, 0.01% Tween-20 and 0.05% Bovine Serum Albumin (BSA). The plate was then incubated at 30° C. for 60 minutes and resorufin fluorescence was measured at emission wavelength 598 nm following excitation at 525 nm. The positive control consisted of the complete reaction mixture with 4% DMSO and was set to 0% inhibition.

Row | Compound | IC50
1 | CN1CC(COc2cc3c(cc(C(=O)NC4(c5ccc(C(=O)O)cc5)CCOC4)n3C)c(Cl)c2Cl)OC1=O (racemic) [I-93 e106] | 1 to 1000 nM
2 | Cn1c(C(=O)NC2(c3ccc(C(=O)O)cc3)CCOC2)cc2c(Cl)c(Cl)c(OCC3CCCO3)cc21 (racemic) [I-94 e98] | 1 to 1000 nM
3 | Cn1c(C(=O)NC2(c3ccc(C(=O)O)cc3)CCOC2)cc2c(Cl)cc(OCC3CNC(=O)O3)cc21 (racemic) [I-95 e96] | 1000 to 5000 nM
4 | CN(C)CCOc1cc2c(cc(C(=O)NC3(c4ccc(C(=O)O)cc4)CCOC3)n2C)c(Cl)c1Cl (racemic) [I-97 e102] | 1 to 1000 nM
5 | CN1CC(COc2cc3c(cc(C(=O)NC4(c5ccc(C(=O)O)cc5)CCOC4)n3C)c(Cl)c2Cl)CC1=O (racemic) [I-102 e100] | 1 to 1000 nM
6 | CC(=O)N1CCC(NC(=O)c2cc3c(Cl)c(Cl)ccc3n2C)(c2ccc(C(=O)O)cc2)C1 (racemic) [I-110 e20] | 1 to 1000 nM
7 | Cn1c(C(=O)NC2(c3ccc(C(=O)O)cc3)CCOC2)cc2c(Cl)c(Cl)c(OCC3CNC(=O)O3)cc21 (racemic) [I-111 e95] | 1 to 1000 nM
8 | Cn1c(C(=O)NC2(c3ccc(C(=O)O)cc3)CCOC2)cc2c(Cl)c3c(cc21)OCCO3 (racemic) [I-113 e35] | 1 to 1000 nM
9 | Cn1c(C(=O)NC2(c3ccc(C(=O)O)cc3)CCN(c3ccccc3)C2)cc2c(Cl)c(Cl)ccc21 (racemic) [I-121 e21] | 1000 to 5000 nM
10 | Cn1c(C(=O)NC2(c3ccc(C(=O)O)cc3)CCN(CC(F)(F)F)C2)cc2c(Cl)c(Cl)ccc21 (racemic) [I-125 e19] | 1000 to 5000 nM
11 | CCN1CCC(NC(=O)c2cc3c(Cl)c(Cl)ccc3n2C)(c2ccc(C(=O)O)cc2)C1 (racemic) [I-126 e18] | 5000 to 10000 nM
12 | COc1ccc2c(cc(C(=O)NC3(c4ccc(C(C(=O)O)C5CCCCC5)cc4)COC3)n2C)c1Cl (racemic) [I-156 e119] | 1 to 1000 nM
13 | COc1ccc2c(cc(C(=O)NC3(c4ccc(C(C(=O)O)C5CCNCC5)cc4)COC3)n2C)c1Cl (racemic) [I-159 e121] | 1 to 1000 nM
14 | COc1ccc2c(cc(C(=O)NC3(c4ccc(C(C(=O)O)C5CCC(O)CC5)cc4)COC3)n2C)c1Cl (racemic) [I-160 e138, (±)-2-[4-[3-[(4-Chloro-5-methoxy-1-methyl-indole-2-carbonyl)amino]oxetan-3-yl]phenyl]-2-(4-hydroxycyclohexyl)acetic acid] | 1 to 1000 nM
15 | COc1cc2c(cc(C(=O)NC3(c4ccc(C(C(=O)O)C5CC5)cc4)CCOC3)n2C)c(Cl)c1Cl (racemic) [I-163 e163, (±)-2-Cyclopropyl-2-(4-(3-(4,5-dichloro-6-methoxy-1-methyl-1H-indole-2-carboxamido)tetrahydrofuran-3-yl)phenyl)acetic acid] | 1 to 1000 nM
16 | C[C@@H](C(=O)O)c1ccc(C2(NC(=O)c3cc4c(Cl)c(Cl)ccc4n3C)COC2)cc1 (single isomer, unassigned) [I-34 or I-35 e161 peak 2] | 1 to 1000 nM
17 | C[C@H](C(=O)O)c1ccc(C2(NC(=O)c3cc4c(Cl)c(Cl)ccc4n3C)COC2)cc1 (single isomer, unassigned) [I-35 or I-34 e160 peak 1] | 1 to 1000 nM
18 | COc1ccc2c(cc(C(=O)NC3(c4ccc(C(CCCO)C(=O)O)cc4)COC3)n2C)c1Cl (centres unmarked) [I-11 e72] | 1 to 1000 nM
19 | COc1ccc2c(cc(C(=O)NC3(c4ccc(C(C)(C)C(=O)O)cc4)COC3)n2C)c1Cl [I-27 e110] | 1 to 1000 nM
20 | Cn1c(C(=O)NC2(c3ccc(C4(C(=O)O)CC4)cc3)COC2)cc2c(Cl)c(Cl)ccc21 [I-28 e108] | 1 to 1000 nM
21 | COc1ccc2c(cc(C(=O)NC3(c4ccc(CC(=O)O)cc4Cl)COC3)n2C)c1Cl [I-32 e64] | 1 to 1000 nM

More lines, now with the values ahead:

Row | IC50 | Compound
22 | 1 to 1000 nM | Cn1c(C(=O)NC2(c3ccc(C(=O)O)cc3)CCOC2)cc2c(Cl)c(C3CC3)ccc21 (racemic) [I-96 e36]
23 | 1 to 1000 nM | Cc1cc(C2(NC(=O)c3cc4c(Cl)c(Cl)ccc4n3C)CCOC2)ccc1C(=O)O (racemic) [I-98 e155, (±)-4-[3-[(4,5-Dichloro-1-methyl-indole-2-carbonyl)amino]tetrahydro-furan-3-yl]-2-methyl-benzoic acid]
24 | 1 to 1000 nM | Cc1cc(C(=O)O)ccc1C1(NC(=O)c2cc3c(Cl)c(Cl)ccc3n2C)CCOC1 (racemic) [I-99 e89]
25 | 1 to 1000 nM | COCCOc1cc2c(cc(C(=O)NC3(c4ccc(C(=O)O)cc4)CCOC3)n2C)c(Cl)c1Cl (racemic) [I-100 e99]
26 | 1000 to 5000 nM | Cn1c(C(=O)NC2(c3ccc(C(=O)O)c(C4CC4)c3)CCOC2)cc2c(Cl)c(Cl)ccc21 (racemic) [I-101 e157, (±)-2-cyclopropyl-4-[3-[(4,5-dichloro-1-methyl-indole-2-carbonyl)amino]-tetrahydrofuran-3-yl]benzoic acid]
27 | 1 to 1000 nM | CCOc1cc2c(cc(C(=O)NC3(c4ccc(C(=O)O)cc4)CCOC3)n2C)c(Cl)c1Cl (racemic) [I-104 e97]
28 | 1 to 1000 nM | CC(C(=O)O)c1ccc(C2(NC(=O)c3cc4c(Cl)c(Cl)ccc4n3C)CCOC2)cc1 (racemic) [I-105 e152, (±)-2-[4-[3-[(4,5-dichloro-1-methyl-indole-2-carbonyl)amino]tetrahydrofuran-3-yl]phenyl]propanoic acid]
29 | 1000 to 5000 nM | Cn1c(C(=O)NC2(c3ccc(C(=O)O)cc3)CCOC2)cc2c(Cl)c(F)ccc21 (racemic) [I-106 e31]
30 | 1 to 1000 nM | Cn1c(C(=O)NC2(c3ccc(C(=O)O)cc3Cl)CCOC2)cc2c(Cl)c(Cl)ccc21 (racemic) [I-107 e24]
31 | 1000 to 5000 nM | COc1cc(Cl)c2cc(C(=O)NC3(c4ccc(C(=O)O)cc4)CCOC3)n(C)c2c1 (racemic) [I-114 e34]
32 | 1 to 1000 nM | COc1cc2c(cc(C(=O)NC3(c4ccc(C(=O)O)cc4)CCOC3)n2C)c(Cl)c1Cl (racemic) [I-115 e33]
33 | 1 to 1000 nM | Cc1ccc2c(cc(C(=O)NC3(c4ccc(C(=O)O)cc4)CCOC3)n2C)c1Cl (racemic) [I-116 e32]
34 | 1000 to 5000 nM | Cn1c(C(=O)NC2(c3ccc(C(=O)O)cc3)CCOC2)cc2c(Cl)cccc21 (racemic) [I-117 e30]
35 | 1 to 1000 nM | Cn1c(C(=O)NC2(c3ccc(C(=O)O)cc3F)CCOC2)cc2c(Cl)c(Cl)ccc21 (racemic) [I-118 e29]
36 | 1 to 1000 nM | Cn1c(C(=O)NC2(c3cccc(CC(=O)O)c3)CCOC2)cc2c(Cl)c(Cl)ccc21 (racemic) [I-119 e153, (±)-2-[3-[3-[(4,5-Dichloro-1-methyl-indole-2-carbonyl)amino]tetrahydrofuran-3-yl]phenyl]acetic acid]
37 | 1 to 1000 nM | Cn1c(C(=O)NC2(c3ccc(C(=O)O)c(C#N)c3)CCOC2)cc2c(Cl)c(Cl)ccc21 (racemic) [I-120 e154, (±)-2-Cyano-4-(3-(4,5-dichloro-1-methyl-1H-indole-2-carboxamido)tetrahydrofuran-3-yl)benzoic acid]
38 | 1 to 1000 nM | COc1ccc2c(cc(C(=O)NC3(c4ccc(C(=O)O)cc4)CCOC3)n2C)c1Cl (racemic) [I-122 e26]
39 | 1 to 1000 nM | Cn1c(C(=O)NC2(c3ccc(C(=O)O)cc3)CCCOC2)cc2c(Cl)c(Cl)ccc21 (racemic) [I-123 e23]
40 | 1 to 1000 nM | Cn1c(C(=O)N[C@@]2(c3ccc(CC(=O)O)cc3)CCOC2)cc2c(Cl)c(Cl)ccc21 (single isomer, unassigned) [I-108 or I-109 e151 peak 2]
41 | 1 to 1000 nM | Cn1c(C(=O)N[C@]2(c3ccc(CC(=O)O)cc3)CCOC2)cc2c(Cl)c(Cl)ccc21 (single isomer, unassigned) [I-109 or I-108 e150 peak 1]

Source: patent US11634412B2, “3-phosphoglycerate dehydrogenase inhibitors and uses thereof” (Raze Therapeutics, Inc., priority 2016, dated 2023)
